Assay results from article PMC8486167, “Orally Active Peptide Vector Allows Using Cannabis to Fight Pain While Avoiding Side Effects” (Journal of Medicinal Chemistry, 2021).
Square brackets hold non-standard residues; d marks the D form. Ends that are not written are not given here. Peptide text beside a SMILES is read from it.

Key:
trypsin = settings: 24 h vs 0 h, HPLC main peak area, mean ± SEM, n = 2
Procedure: Peptide samples, incubated with trypsin, were collected and analyzed as before.[60] For human serum digestion, peptide [1000 μM, 2% dimethyl sulfoxide (DMSO) in filtered H2O] was added to human serum (Sigma, St Louis, Missouri) in a 1:1 ratio and incubated at 37 °C with gentle shaking. At 0 min and 24 h, aliquots were taken and proteolysis was stopped with CH3CN (80% in filtered H2O), chilled at 0 °C for 15 min to precipitate serum proteins, and centrifuged at 13,000 rpm at 4 °C for 10 min. The supernatant was collected and analyzed by analytical RP-HPLC and LC–MS as described before,[60] with a 0–95% linear gradient of CH3CN over 15 min. All experiments are performed in duplicate and data were fitted with GraphPad Prism.

CB1R–5HT2AR heteromer [1] = target: T1, CB1R–5HT2AR heteromer (Homo sapiens, UniProt P28223); test: cAMP production (HTRF), decrease in FK-induced cAMP; assay type: cell-based; settings: for FK-induced cAMP production after agonist: agonist 100 nM, all groups
T1 construct: expressed in transfected cells; host or cells: HEK-293T / HEK-293
Procedure: Sequences encoding YFP Venus protein amino acid residues 1–155 and 156–238 were subcloned in the pcDNA3.1 vector to obtain the YFP Venus hemitruncated proteins. The human cDNAs for 5HT2AR and CB1R, cloned into the pcDNA3.1, were amplified and subcloned as described[18] to give 5HT2AR-cYFP and CB1R-nYFP. Human embryonic kidney (HEK-293T) cells obtained from ATCC were grown in Dulbecco’s modified Eagle’s medium (DMEM) (Gibco) supplemented with 2 mM L-glutamine, 100 μg/mL sodium pyruvate, 100 U/mL penicillin/streptomycin, MEM nonessential amino acid solution (1/100), and 5% (v/v) heat-inactivated fetal bovine serum (FBS) (all supplements from Invitrogen, Paisley, Scotland, UK). Cells were maintained at 37 °C in an atmosphere of 5% CO2. HEK-293T cells were transfected with the corresponding fusion protein cDNA by the polyethylenimine (Sigma) method, as described before.[18]
For cAMP production, homogeneous time-resolved fluorescence energy transfer (HTRF) assays were performed as previously described.[18] […] Fluorescence at 665 nm was analyzed on a PHERAstar Flagship microplate reader equipped with an HTRF optical module (BMG Lab technologies, Offenburg, Germany).

CB1R–5HT2AR heteromer [2] = target: T1, CB1R–5HT2AR heteromer; test: ERK-1/2 phosphorylation assay (α-screen); assay type: cell-based
Procedure: Phosphorylation was determined in white ProxiPlate 384-well microplates (PerkinElmer Life Sciences) by the α-screen bead-based technology using the amplified luminescent proximity homogeneous assay kit (PerkinElmer Life Sciences) and using the Enspire multimode plate reader (PerkinElmer Life Sciences). Phosphorylation is expressed in arbitrary units, ALPHAcounts, as measured by light emission at 520–620 nm of the acceptor beads.

mice [3] = test: Immunogenicity: mice immunization and serum ELISA; assay type: in vivo, mouse; settings: CD-1 mice, IV, 5 consecutive days and boost at day 15; 17 at 100 μg/dose, 17-KLH at 30 μg; sera days 0, 9, 19; plates coated with 17-BSA
Procedure: Experiments were performed at the ICTS “NANBIOSIS” Custom Antibody Service (CAbS, CIBER-BBN, IQAC-CSIC). The immune response to 17 was assessed in outbred Swiss ICR (CD-1) mice strain Hsd:ICR (CD-1) (Envigo RMS, The Netherlands), following the immunization schedule in Figure 7. Animals were housed under standard conditions in the CID-CSIC animal facility. Animal experimental procedures were conducted in accordance with protocols approved by CSIC Committee on Ethics of Animal Experiments and Biosafety, as well as the Spanish National Committee on Ethics and Animal Welfare. Briefly, a first group of 10 female mice received IV doses of 17 (200 μL, 20 mg/kg, PBS + 2% DMSO), a second group of 5 mice received IV doses of 17-KLH conjugate (200 μL, 30 μg) and a third group of 5 mice received IVdoses of PBS (200 μL, negative control). The 17-KLH conjugate, administered with Freund’s adjuvant, was also used to generate polyclonal antibody (positive control) (data not shown). Serum samples were collected by tail vein bleeds on days 0, 9, and 19. […] The peptide-specific humoral response was determined by indirect ELISA. […] Color development was stopped with 4 N H2SO4 (50 μL/well) after 30 min at r.t., and absorbance read at 450 nm. Titers in a log10 scale were expressed as the reciprocal of the last dilution giving the absorbance recorded in the control wells (serum at day 0) plus 2 SD.

mice [4] = test: Novel object recognition test (THC memory impairment); assay type: in vivo; settings: mouse; THC 3 mg/kg IP
Procedure: On day 1 (Habituation), mice were habituated for 9 min to the V-maze in which the task was performed. The following day (Training), mice were placed in the V-maze for 9 min, two identical objects were presented and the time that the mice spent exploring each object was recorded. Mice were again placed in the maze 24 h later for 9 min (Test), one of the familiar objects was replaced with a novel object and the total time spent exploring each of the two objects (novel and familiar) was recorded. Object exploration was defined as the orientation of the nose to the object at less than 2 cm. A discrimination index was calculated as the difference between the time spent exploring the novel or familiar object divided by the total time exploring the two objects. A higher discrimination index is considered to reflect greater memory retention for the familiar object.
Thirty min after peptide administration, mice received an IP injection of vehicle (5% v/v of ethanol, 5% v/v of Cremophor-EL, and 90% v/v saline) or 3 mg/kg of THC dissolved in vehicle.

mice [5] = test: Hot-plate test (THC-induced analgesia); settings: mouse; THC 10 mg/kg IP
[6] = tested on: bEnd.3 brain endothelial cells; settings: 5(6)-carboxyfluorescein-labeled peptides; bEnd.3 cells; fluorescence in basolateral chamber after 24 h; n = 3–6
Procedure: bEnd.3 brain endothelial cells (ATCC CRL-2299TM) were grown as a monolayer in DMEM supplemented with 10% FBS and 1% penicillin/streptomycin solution (Gibco, USA). Cells were cultured in a humidified atmosphere of 95% air and 5% CO2 at 37 °C (MCO-18AIC (UV), Sanyo, Japan), with daily medium replacement.
The translocation capabilities of 5(6)-carboxyfluorescein-labeled peptides were determined using a protocol previously described.[30],[31] After the experiment, the integrity of the endothelial barrier was checked by measuring the permeability of a 4 kDa fluorescently labeled dextran (FD4) as previously described.[25] Experiments were carried out on different days using independently grown cell cultures.

[7] = RIM 1 μM vs DOI 100 nM, MDL 300 nM vs WIN 100 nM, no peptide

T1 sequence (P28223 whole entry, one chain of several): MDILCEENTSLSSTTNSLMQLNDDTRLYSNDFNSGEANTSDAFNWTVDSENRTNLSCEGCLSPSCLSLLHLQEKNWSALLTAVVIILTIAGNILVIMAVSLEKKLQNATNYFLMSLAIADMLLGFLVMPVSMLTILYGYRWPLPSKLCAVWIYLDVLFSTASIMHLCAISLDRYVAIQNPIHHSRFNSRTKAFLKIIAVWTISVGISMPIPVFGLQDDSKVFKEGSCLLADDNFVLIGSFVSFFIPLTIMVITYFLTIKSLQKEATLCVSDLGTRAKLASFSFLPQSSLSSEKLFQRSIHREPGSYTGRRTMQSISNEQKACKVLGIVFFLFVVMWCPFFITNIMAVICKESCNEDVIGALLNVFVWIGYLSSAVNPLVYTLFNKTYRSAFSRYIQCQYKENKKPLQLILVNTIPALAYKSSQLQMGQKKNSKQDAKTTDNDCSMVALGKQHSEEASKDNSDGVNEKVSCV

**Q.** How did the “proteolytic stability: unaltered peptide remaining after trypsin incubation” value (trypsin) turn out when AGILKRWKTLVLILVV-NH2 [compound 9] was run?
**A.** poor survival

**Q.** How did the “antagonist block of the partner receptor's agonist signal (cross-antagonism, cAMP)” value (CB1R–5HT2AR heteromer [1]; [7]) turn out when `Cc1c(C(=O)NN2CCCCC2)nn(-c2ccc(Cl)cc2Cl)c1-c1ccc(Cl)cc1` [RIM, rimonabant] was run?
**A.** blocked the decrease in FK-induced cAMP or the increase in pERK triggered by the 5HT2AR agonist DOI

**Q.** What about the “antagonist block of the partner receptor's agonist signal (cross-antagonism, pERK)” value (CB1R–5HT2AR heteromer [2]; [7]) of the same molecule?
**A.** blocked the decrease in FK-induced cAMP or the increase in pERK triggered by the 5HT2AR agonist DOI

**Q.** For `CC[C@@H](C)[C@@H](NC(=O)CNC(=O)[C@@H](C)NC(=O)[C@H](NC(=O)[C@@H](Cc1ccc(O)cc1)NC(=O)[C@@H](C)NC(=O)[C@@H](Cc1ccc(O)cc1)NC(=O)[C@@H](CCSC)NC(=O)[C@@H](Cc1ccc(O)cc1)NC(=O)[C@H](NC(=O)[C@@H](CC(C)C)NC(=O)[C@H](N)Cc1c[nH]c2ccccc12)[C@H](C)CC)C(C)C)C(=O)N[C@H](CC(C)C)C(=O)N[C@H](CCCCN)C(=O)N[C@H](CCCNC(=N)N)C(=O)N[C@H](Cc1c[nH]c2ccccc12)C(N)=O` [compound 17] (H-[dW][dL][dI][dY][dM][dY][dA][dY][dV][dA]G[dI][dL][dK][dR][dW]-NH2), which “immunogenicity: peptide-specific antibody response (ELISA titers)” value (mice [3]) is on record?
**A.** did not evoke any detectable immune response

**Q.** What does the source list for “LIKTVFAFCSMLCLLNSTVNPIIYALRGRKKRRQRRR [TM7-Tat, peptide TM7-Tat, used as a negative control]”?
**A.** elimination of bidirectional cross-antagonism (FK-induced cAMP) (CB1R–5HT2AR heteromer [1]; DOI 100 nM, WIN 100 nM, MDL 300 nM, RIM 1 μM, 0.5 μM FK, n = 3–6): not observed with TM7-Tat; influence on G protein coupling preference of 5HT2AR (CB1R–5HT2AR heteromer [1]; FK-induced cAMP, 0.5 μM FK, WIN 100 nM or DOI 100 nM, transfected HEK-293T cells, n = 3–6): 5HT2AR remains Gi-coupled in the presence of interfering peptides; elimination of bidirectional cross-antagonism (pERK) (CB1R–5HT2AR heteromer [2]; DOI 100 nM, WIN 100 nM, MDL 300 nM, RIM 1 μM, % of basal, n = 4–9): not observed with TM7-Tat

**Q.** With VYAYMYILWAGILKRW-NH2 [compound 5] as the molecule, how does the “proteolytic stability: unaltered peptide remaining after trypsin incubation” value (trypsin) read?
**A.** poor survival

**Q.** Which “proteolytic stability: unaltered peptide remaining after trypsin incubation” value (trypsin) does the source give for VYAYMYILWSKSKSK-NH2 [compound 6] here?
**A.** poor survival

**Q.** Which “THC effect in novel object recognition test” value (mice [4]) does the source give for `CCCCCc1cc(O)c2c(c1)OC(C)(C)[C@@H]1CCC(C)=C[C@@H]21` [THC, Δ^9-tetrahydrocannabinol] here?
**A.** memory impairment

**Q.** What about the “THC effect in hot-plate test” value (mice [5]) of the same molecule?
**A.** analgesic effects

**Q.** `Cc1c(C(=O)c2cccc3ccccc23)c2cccc3c2n1[C@H](CN1CCOCC1)CO3` [WIN, WIN 55,212-2] was tested. Which “FK-induced cAMP production after agonist” value (CB1R–5HT2AR heteromer [1]; 0.5 μM FK) did it give?
**A.** reduced cAMP production

**Q.** How did the “translocation across the transwell BBB model” value [6] turn out when `CC[C@@H](C)[C@@H](NC(=O)CNC(=O)[C@@H](C)NC(=O)[C@H](Cc1c[nH]c2ccccc12)NC(=O)[C@H](CC(C)C)NC(=O)[C@@H](NC(=O)[C@H](Cc1ccc(O)cc1)NC(=O)[C@H](CCSC)NC(=O)[C@H](Cc1ccc(O)cc1)NC(=O)[C@H](C)NC(=O)[C@H](Cc1ccc(O)cc1)NC(=O)[C@@H](N)C(C)C)[C@@H](C)CC)C(=O)N[C@H](CC(C)C)C(=O)N[C@H](CCCCN)C(=O)N[C@H](CCCNC(=N)N)C(=O)N[C@H](Cc1c[nH]c2ccccc12)C(N)=O` [compound 13] (H-VYAYMYILW[dA]G[dI][dL][dK][dR][dW]-NH2) was run?
**A.** translocated more efficiently than 14 and 16

**Q.** How did the “translocation across the transwell BBB model” value [6] turn out when `CC[C@@H](C)[C@@H](NC(=O)CNC(=O)[C@@H](C)N)C(=O)N[C@H](CC(C)C)C(=O)N[C@H](CCCCN)C(=O)N[C@H](CCCNC(=N)N)C(=O)N[C@H](Cc1c[nH]c2ccccc12)C(=O)N[C@@H](CCCCN)C(=O)N[C@H](C(=O)N[C@@H](CC(C)C)C(=O)N[C@H](C(=O)N[C@@H](CC(C)C)C(=O)N[C@H](C(=O)N[C@@H](CC(C)C)C(=O)N[C@H](C(=O)N[C@H](C(N)=O)C(C)C)C(C)C)[C@@H](C)CC)C(C)C)[C@@H](C)O` [compound 15] (H-[dA]G[dI][dL][dK][dR][dW]KTLVLILVV-NH2) was run?
**A.** translocated more efficiently than 14 and 16

**Q.** With `COc1cc(CC(C)N)c(OC)cc1I` (stereo not shown) [DOI, 2,5-dimethoxy-4-iodoamphetamine] as the molecule, how does the “FK-induced cAMP production after agonist” value (CB1R–5HT2AR heteromer [1]; 0.5 μM FK) read?
**A.** reduced cAMP production

**Q.** Which “proteolytic stability: unaltered peptide remaining after trypsin incubation” value (trypsin) does the source give for SKSKSKKTLVLILVV-NH2 [compound 10] here?
**A.** poor survival
